Biological target: T1, pS166-RIPK1 (Homo sapiens, UniProt Q13546)
T1 construct: endogenous in cells
T1 sequence (Q13546 1-671): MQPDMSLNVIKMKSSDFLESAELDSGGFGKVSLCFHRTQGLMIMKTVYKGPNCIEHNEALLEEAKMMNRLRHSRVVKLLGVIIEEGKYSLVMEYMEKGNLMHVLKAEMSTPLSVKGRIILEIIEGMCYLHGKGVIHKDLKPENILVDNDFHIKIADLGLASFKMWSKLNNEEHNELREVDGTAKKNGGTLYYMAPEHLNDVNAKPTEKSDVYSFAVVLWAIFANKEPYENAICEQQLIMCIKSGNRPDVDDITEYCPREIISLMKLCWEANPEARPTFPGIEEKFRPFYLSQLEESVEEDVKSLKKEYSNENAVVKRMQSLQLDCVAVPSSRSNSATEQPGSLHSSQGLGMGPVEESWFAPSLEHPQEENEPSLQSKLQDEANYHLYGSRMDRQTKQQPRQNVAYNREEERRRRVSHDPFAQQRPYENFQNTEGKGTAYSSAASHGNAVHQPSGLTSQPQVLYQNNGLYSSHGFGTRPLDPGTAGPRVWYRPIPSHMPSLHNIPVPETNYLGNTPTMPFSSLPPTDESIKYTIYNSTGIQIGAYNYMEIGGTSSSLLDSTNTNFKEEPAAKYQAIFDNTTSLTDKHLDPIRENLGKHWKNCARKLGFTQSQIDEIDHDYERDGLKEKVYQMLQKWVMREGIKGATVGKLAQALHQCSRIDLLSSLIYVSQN
Assay: pS166-RIPK1 inhibition in vitro in microglia
Type: cell-based

SMILES: CC(C)(C(=O)N1CCOc2c(C#N)cncc2C1)C(F)F [Compound 1, 4-(3,3-difluoro-2,2-dimethyl-propanoyl)-3,5-dihydro-2H-pyrido[3,4-f] [1,4]oxazepine-9-carbonitrile]
- EC90: 64 nM
